# Results as given in patent publication US6844365B2, “Substances for use in treating psoriasis” (Laboratoire Medidom S.A., priority 2000, dated 2005).
# Legend:
# IL-6, TNF-α and LIF = details: prior knowledge; cited from earlier work
# prostaglandin PGE2 = details: cited from earlier work
# IL-1 = IL-1 release from keratinocytes by ELISA; type: cell-based, human
# Protocol: (§1) UV-B radiation was delivered with a battery of lamps (TL 20W/12RS UV-B Philips Medical) before and after treatment with diacerein.
# (§2) In other experiments, UVB irradiation was delivered only after diacerein addition.
# (§3) Before irradiation, the cells were washed once with PBS and irradiated in presence of PBS.
# (§4) Controls were sham irradiated for identical periods as measured by International Light Research Radiometer (Newburyport, Mass.).
# (§5) Quantitation of cytokine levels was performed by a quantitative two-site enzyme immunoassay according to manufacturer's instructions, using ELISA kits for IL-1, IL-6, IL-8 and TNF-α.
# (§6) The sample concentration was determined by absorbance at 450 nm with the correction wavelength set at 540 nm.
# IL-1 is constitutively expressed in human keratinocytes. IL-1 release was measured after the addition of increasing doses of diacerein.
# [1] = tested on: patients with mild to moderate psoriatic arthritis; test: Clinical trial of Artrodar (diacerein) in psoriasis with mild to moderate psoriatic arthritis; type: in vivo, human; details: for Ritchie articular index, hip sx: baseline Ritchie 2
# Protocol: The aim of this study was to assess the efficacy and safety of diacerein in the treatment of psoriasis with mild to moderate psoratic arthritis.
# The investigational drug, Artrodar® (Laboratoire Medidom S. A. (Geneva)), is a size 1 hard gelatin capsule.
# Ten patients satisfying all the inclusion and exclusion criteria indicated below were tested.
# Male or female patients over 18 years of age with • cutaneous involvement defined by the psoriasis area and severity index (PASI) (<15); • persistent negative latex test or ELISA for rheumatoid factors; • established diagnosis of mild to moderate severity psoriatic arthritis of at least 3 months duration characterized by oligoarthritis (<4 involved joints) and/or spondyloarthritis; • normal values for haematology and clinical chemistry values (ESR 1 h<30 mm, WBC with leucocyte differential count, RBC, Hb ([…]), platelets, creatinine, transaminases, alkaline phosphatase, bilirubin); • normal or drug-controlled blood pressure values; • failure to respond to topical (including emollients and coal tar) and phototherapy; • evidence of medically approved contraceptive methods in women of childbearing age; • written informed consent from each patient;
# Exclusion criteria: • patient under 18 years of age; • positive rheumatoid factor (RF) or antinuclear antibodies (ANA) >1:80; • history of inflammatory bowel disease or evidence of another rheumatologic disorder; • ascertained individual sensitivity to diacerein or any of the components in the capsule; • chronic illness that, in the opinion of the Investigator, would limit successful participation in the trial; • treatment with slow acting drugs and/or corticosteroids during the month prior to study start; • patient who, in the judgement of the Investigator, […]. Treatment
# Treatment was 2×50 mg capsules of Artrodar® (each capsule contains 50 mg diacerein) taken orally per day for 6 months.
# One capsule was to be taken in the afternoon after lunch while the other was to be taken in the evening after dinner.
# No slow acting disease modifying drugs for psoriatic arthritis or corticosteroids were allowed during one month prior to the start of the study and throughout the study.
# Treatment with NSAIDs, analgesics and other drugs was kept constant during the study and the doses used were recorded every week.
# The following were assessed at baseline and at regular intervals during the study: • The PASI index (Fredriksson and Petterson, 1978)^i for assessing cutaneous involvement. • Pain on activity (target joint) assessed using the VAS. • Ritchie articular index.
# All adverse events either observed by the Investigator or reported by […] were recorded.
# IL-8 = IL-8 release from keratinocytes by ELISA; type: cell-based, human
# Protocol: as §1, §2, §3, §4, §5, §6
# As TNF-α is a potent inducer of IL-8 in keratinocytes and plays an important role in the pathogenesis of psoriasis, the effect of diacerein on IL-8 was also evaluated after stimulating keratinocytes with TNF-α.
# IL-6 = IL-6 release from keratinocytes by ELISA; type: cell-based, human
# Protocol: as §1, §2, §3, §4, §5, §6
# No constitutive levels of IL-6 are normally detected in human keratinocytes.
# Therefore, IL-6 release was stimulated by UVB irradiation.
# [2] = tested on: cytokines of the IL-1 family, especially IL-1β; details: prior knowledge; cited from earlier work
# [3] = cited from earlier work
# TNF-α = TNF-α release from keratinocytes by ELISA; type: cell-based, human; details: 24 hours after UVB irradiation
# Protocol: as §1, §2, §3, §4, §5, §6
# As mentioned above, TNF-α is of great relevance in the pathomechanisms of psoriasis. Therefore, we wanted to evaluate the effect of diacerein on the release of this cytokine from human keratinocytes.
# human keratinocytes = test: Viability of keratinocytes by trypan blue exclusion; type: cell-based; details: increasing doses, 24 and 96 hours, except 100 and 200 μM at 96 hours
# Protocol: Human epidermal keratinocytes were obtained from foreskin by dispase II (5 mg/ml for 60 minutes at 37° C., Boehringer Mannheim, Germany) separation of epidermal sheets.
# The epidermis was incubated in 0.25% trypsin/0.02% EDTA for 20 minutes a 37° C. and mechanically disaggregated.
# The epidermal cell suspensions were plated (2.5×10^4/cm^2) on mytomicin C-treated 3T3-J2 cells (2.4×10^4/cm^2), ATCC, Rockville, Md., USA) and cultured in 5% CO2 humidified atmosphere in the keratinocyte growth medium: Dulbecco's modified Eagle's medium and Ham's F12 media (3:1 mixture, Biochrom KG, Berlin, Germany) containing fetal calf serum (10%, ICN Biomedicals, Aurora, Ohio), insulin ([…], Sigma, St.Louis, Mo., USA), transferrin ([…], Sigma), adenine (0.18 mM, Sigma), hydrocortisone ([…], Sigma), triiodothyronine (20 pM, Sigma), cholera toxin (0.1 nM, Sigma), epidermal growth factor (10 ng/ml, Sigma), 4 mM glutamine (Sigma), and penicillin/streptomycin (50 IU/ml, Biochrom.). […]
# Cell viability was evaluated by trypan blue exclusion.
# In order to understand the effects of diacerein on human keratinocytes, a possible alteration of vital parameters was evaluated by the trypan blue exclusion.
# [4] = of 7 patients, 2×50 mg orally per day
# [5] = patient one, 2nd visit, improved from Ritchie 1
# [6] = patient three, 2nd visit, improved from Ritchie 2
compound,measurement,setting,value
"CC(=O)Oc1cccc2c1C(=O)c1c(OC(C)=O)cc(C(=O)O)cc1C2=O [diacerein, 4,5-bis(acetyloxy)-9,10-dihydro-9,10-dioxo-2-anthracene carboxylic acid]",effect on IL-6 and other cytokines such as TNF-α and LIF,"IL-6, TNF-α and LIF",inhibit IL-6 and other cytokines such as TNF-α and LIF
same,gastrotoxic potential,prostaglandin PGE2; inferred from no effect on PGE2 production,does not have gastrotoxic potential
same,effect on prostaglandin PGE2 production,prostaglandin PGE2; prior knowledge,not to effect prostaglandin PGE2 production
same,effect on UVB-induced increase in IL-1 release,IL-1; 24 hours after UVB irradiation,prevented this effect
same,dose down-regulating IL-1 release almost to baseline levels,IL-1; UVB-irradiated keratinocytes,0.1 µM
same,effect of timing of administration on IL-1 release,IL-1; before versus after UVB irradiation,more powerful when administered before UVB irradiation
same,effect on constitutive levels of IL-1,"IL-1; normal conditions, no UVB",did not affect
same,adverse effect reported,"[1]; all treated patients, caused drop-out",diarrhea in one patient
same,number of patients who responded after 1 month,[1]; [4],4 patients
same,number of patients who responded after 2 months,[1]; [4],2 patients
same,number of patients who responded after 3 months,[1]; [4],1 patients
same,psoriasis status,"[1]; patient five, 2nd visit Jul. 14, 2000, 1 month treatment, baseline PASI 10.1",Psoriasis: status unchanged.
same,Pain on VAS,"[1]; patient five, 2nd visit, baseline 60 mm",Pain on VAS = 50 mm
same,"Ritchie articular index, knee pain (bilateral)","[1]; patient five, 2nd visit, baseline Ritchie 1",had knee pain (bilateral) (Ritchie 1).
same,Responder,"[1]; patient five, treatment period only 1 month",No as
same,Responder,[1]; patient four,Yes
same,PASI score,"[1]; patient four, 2nd visit Jul. 13, 2000, baseline 13.6",PASI score = 6.7
same,Pain on VAS,"[1]; patient four, 2nd visit, baseline 50 mm",Pain on VAS = 50 mm.
same,"Ritchie articular index, shoulder sx","[1]; patient four, 2nd visit, baseline Ritchie 1",Shoulder sx: Unchanged
same,"Ritchie articular index, hip sx","[1]; patient four, 2nd visit",Hip sx: Unchanged
same,"Ritchie articular index, TMC dx","[1]; patient four, 2nd visit, improved from Ritchie 1",TMC dx: Improved from Ritchie 1 to 0
same,PASI score,"[1]; patient four, 3rd visit Aug. 30, 2000, baseline 13.6",PASI score = 2.2
same,Pain on VAS,"[1]; patient four, 3rd visit, baseline 50 mm",Pain on VAS = 50 mm.
same,"Ritchie articular index, shoulder sx","[1]; patient four, 3rd visit, baseline Ritchie 1",Shoulder sx: Unchanged
same,"Ritchie articular index, hip sx","[1]; patient four, 3rd visit",Hip sx: Unchanged
same,"Ritchie articular index, TMC dx","[1]; patient four, 3rd visit, improved from Ritchie 1",TMC dx: Improved from Ritchie 1 to 0
same,Responder,[1]; patient one (stopped after 4 weeks),Yes
same,PASI score,"[1]; patient one, 2nd visit Aug. 18, 2000, after stopping treatment in mid-July and mild return, baseline 4.8",PASI score = 2.4
same,"Ritchie articular index, TMC sx",[1]; [5],TMC sx improved from Ritchie 1 to 0
same,"Ritchie articular index, shoulder sx",[1]; [5],Shoulder sx: improved from Ritchie 1 to 0
same,"Ritchie articular index, tibiotarsal joint sx","[1]; patient one, 2nd visit, improved from Ritchie 2",Tibiotarsal joint sx: improved from Ritchie 2 to 0.
same,Responder,[1]; patient seven,Yes
same,PASI score,"[1]; patient seven, 2nd visit Jun. 6, 2000, baseline 9.6",PASI score = 6.6
same,Pain on the VAS,"[1]; patient seven, 2nd visit, baseline 60 mm",Pain on the VAS = 50 mm.
same,PASI score,"[1]; patient seven, 3rd visit Jul. 3, 2000, baseline 9.6",PASI = score 5.0
same,Pain on the VAS,"[1]; patient seven, 3rd visit, baseline 60 mm",Joint swelling decreased in all joints. Pain on the VAS = 40 mm.
same,PASI score,"[1]; patient seven, 4th visit Aug. 18, 2000, baseline 9.6",PASI score = 0.9
same,Responder,[1]; patient six,Yes
same,psoriasis status,"[1]; patient six, 2nd visit, after 2 months treatment, baseline PASI 8.1",disappeared in June.
same,PASI score,"[1]; patient six, 3rd visit Jul. 19, 2000 (psoriasis reappeared), baseline 8.1",PASI score = 3.9
same,"Ritchie articular index, right knee","[1]; patient six, 4th visit, baseline Ritchie 3",0
same,Pain on the VAS,"[1]; patient six, right knee, 3rd visit, baseline 50 mm",VAS = 50 mm.
same,pain (VAS),"[1]; patient six, right knee, 4th visit Aug. 29, 2000, baseline 50 mm",1 cm
same,Responder,[1]; patient three,Yes
same,PASI score,"[1]; patient three, 2nd visit Jul. 20, 2000, baseline 6.9",PASI score = 6.9
same,"Ritchie articular index, wrist dx",[1]; [6],Wrist dx: improved from Ritchie 2 to 1.
same,"Ritchie articular index, wrist sx",[1]; [6],Wrist sx: improved from Ritchie 2 to 0
same,"Ritchie articular index, wrist sx","[1]; patient three, 3rd visit",Wrist sx: Ritchie 0
same,Morning stiffness,"[1]; patient three, 3rd visit Aug. 24, 2000",Morning stiffness = 30 minutes.
same,PASI score,"[1]; patient three, 3rd visit Aug. 24, 2000, baseline 6.9",PASI score = 3.9
same,"Ritchie articular index, wrist dx","[1]; patient three, 3rd visit, improved from Ritchie 1",Arthritis: Wrist dx: improved from Ritchie 1 to 0.
same,Responder,"[1]; patient two (stopped after 1 month, diarrhea)",Yes
same,PASI score,"[1]; patient two, 2nd visit Jul. 20, 2000, baseline 0.6",PASI score = 0.1
same,"Ritchie articular index, 2nd MCF dx","[1]; patient two, 2nd visit, printed as improved from Ritchie 1, baseline Ritchie 2","Arthritis: 2nd MCF, dx, improved from Ritchie 1 to Ritchie 0."
same,patients who responded to treatment (improvement on PASI score),"[1]; seven patients who took Diacerein one month or more, 2×50 mg capsules orally per day",100%
same,doses with significant reduction of UVB-induced IL-8 levels,IL-8; 24 hours after UVB irradiation,5 to 100 µM
same,effect of timing of addition on IL-8 release,IL-8; UVB-irradiated keratinocytes,more effective when given both before and after UVB irradiation
same,doses down-regulating TNF-α-induced IL-8 release,"IL-8; keratinocytes stimulated with TNF-α, 24 hours",50 to 200 µM
same,effect on IL-8,"IL-8; normal conditions, no stimulus",unaffected
same,effect on UVB-induced IL-6 release,IL-6; 24 hours after irradiation,caused a reduction
same,effect of timing of addition on IL-6 release,IL-6; UVB-irradiated keratinocytes,significantly more effective when added both before and after UVB light
same,dose giving significant reduction in IL-6 release,IL-6; added both before and after UVB,1 µM
same,dose necessary for down regulation of IL-6,IL-6; administered only before UVB,5 µM
same,effect on IL-6 levels,"IL-6; basic conditions, no UVB",did not affect
same,"effect on synthesis and activity of pro-inflammatory catabolic cytokines of the IL-1 family, especially IL-1β",[2],inhibit the synthesis and activity
same,carcinogenic potential,[3]; extensive toxicology studies,does not show carcinogenic potential
same,tolerability,"[3]; prior use in osteoarthritis and rheumatoid arthritis, toxicology studies",well tolerated
same,doses down-regulating UVB-induced TNF-α release,TNF-α,50 to 200 µM
same,alteration of keratinocyte viability,human keratinocytes,did not cause any significant alteration
